From ChEMBL document CHEMBL3797034, “Design, synthesis and evaluation of novel tacrine-multialkoxybenzene hybrids as multi-targeted compounds against Alzheimer's disease” (Eur J Med Chem, 2016)
The source made the active and inactive calls. The rule behind the calls is not given here.

How the values were obtained:
Acetylcholinesterase = Acetylcholinesterase (Electrophorus electricus, UniProt O42275)
Description: Inhibition of electric eel AChE using acetylthiocholine chloride as substrate preincubated for 20 mins followed by substrate addition by Ellman's method

Cholinesterase = Cholinesterase (Equus caballus, UniProt P81908)
Description: Inhibition of equine serum BuChE using butylthiocholine chloride as substrate preincubated for 20 mins followed by substrate addition by Ellman's method

[1] = molecular target: Amyloid-beta precursor protein (Homo sapiens, UniProt P05067)
Chain of Amyloid-beta precursor protein (P05067 whole entry): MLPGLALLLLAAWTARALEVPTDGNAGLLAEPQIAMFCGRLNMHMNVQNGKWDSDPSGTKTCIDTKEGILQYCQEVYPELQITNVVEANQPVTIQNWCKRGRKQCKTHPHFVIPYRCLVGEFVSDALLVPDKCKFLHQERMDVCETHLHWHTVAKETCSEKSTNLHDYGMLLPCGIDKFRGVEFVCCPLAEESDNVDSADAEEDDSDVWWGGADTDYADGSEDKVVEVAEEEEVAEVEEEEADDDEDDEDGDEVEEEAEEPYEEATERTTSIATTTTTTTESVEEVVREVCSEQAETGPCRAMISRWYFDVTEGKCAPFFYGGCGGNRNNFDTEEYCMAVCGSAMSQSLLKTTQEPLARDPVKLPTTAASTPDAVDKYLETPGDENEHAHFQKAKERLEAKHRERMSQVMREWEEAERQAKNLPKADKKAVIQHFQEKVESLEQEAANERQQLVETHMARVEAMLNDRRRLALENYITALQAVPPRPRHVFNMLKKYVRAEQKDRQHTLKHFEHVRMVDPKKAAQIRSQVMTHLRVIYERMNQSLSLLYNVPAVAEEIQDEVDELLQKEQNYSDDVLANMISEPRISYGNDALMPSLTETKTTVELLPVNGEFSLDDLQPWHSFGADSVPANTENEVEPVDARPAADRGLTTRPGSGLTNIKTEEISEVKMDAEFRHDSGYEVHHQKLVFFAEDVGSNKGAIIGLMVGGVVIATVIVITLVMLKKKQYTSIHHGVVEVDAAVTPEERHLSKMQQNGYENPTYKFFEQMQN
Description: Inhibition of self-mediated amyloid beta (1 to 42) (unknown origin) aggregation after 24 hrs by thioflavin T fluorescence assay

[2] = molecular target: Acetylcholinesterase (Electrophorus electricus) (UniProt O42275); experiment: Mixed inhibition of electric eel AChE using acetylthiocholine chloride as substrate preincubated for 20 mins followed by substrate addition by Lineweaver-burk plot analysis
Chain of Acetylcholinesterase (Electrophorus electricus) (O42275 24-633 limits assumed): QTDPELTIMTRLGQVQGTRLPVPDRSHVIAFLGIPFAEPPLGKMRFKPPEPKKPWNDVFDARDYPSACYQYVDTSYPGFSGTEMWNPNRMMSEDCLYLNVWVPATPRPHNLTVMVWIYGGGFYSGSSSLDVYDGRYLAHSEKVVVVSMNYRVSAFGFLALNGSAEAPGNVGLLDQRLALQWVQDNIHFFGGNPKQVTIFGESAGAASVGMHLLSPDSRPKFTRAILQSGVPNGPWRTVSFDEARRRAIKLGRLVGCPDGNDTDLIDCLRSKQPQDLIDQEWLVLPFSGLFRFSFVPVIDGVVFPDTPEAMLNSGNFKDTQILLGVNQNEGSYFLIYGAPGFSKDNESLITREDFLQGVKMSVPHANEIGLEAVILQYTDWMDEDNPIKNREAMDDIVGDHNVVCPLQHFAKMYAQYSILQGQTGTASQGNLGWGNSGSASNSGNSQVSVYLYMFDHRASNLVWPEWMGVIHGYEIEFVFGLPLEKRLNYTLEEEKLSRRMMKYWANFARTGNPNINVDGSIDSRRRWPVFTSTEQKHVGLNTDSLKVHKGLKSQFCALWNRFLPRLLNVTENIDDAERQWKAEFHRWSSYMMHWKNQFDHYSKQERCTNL

[3] = molecular target: Acetylcholinesterase (Electrophorus electricus) (UniProt O42275); experiment: Reversible inhibition of electric eel AChE using acetylthiocholine chloride as substrate preincubated for 20 mins followed by substrate addition by Lineweaver-burk plot analysis

Chain of Cholinesterase (P81908 whole entry): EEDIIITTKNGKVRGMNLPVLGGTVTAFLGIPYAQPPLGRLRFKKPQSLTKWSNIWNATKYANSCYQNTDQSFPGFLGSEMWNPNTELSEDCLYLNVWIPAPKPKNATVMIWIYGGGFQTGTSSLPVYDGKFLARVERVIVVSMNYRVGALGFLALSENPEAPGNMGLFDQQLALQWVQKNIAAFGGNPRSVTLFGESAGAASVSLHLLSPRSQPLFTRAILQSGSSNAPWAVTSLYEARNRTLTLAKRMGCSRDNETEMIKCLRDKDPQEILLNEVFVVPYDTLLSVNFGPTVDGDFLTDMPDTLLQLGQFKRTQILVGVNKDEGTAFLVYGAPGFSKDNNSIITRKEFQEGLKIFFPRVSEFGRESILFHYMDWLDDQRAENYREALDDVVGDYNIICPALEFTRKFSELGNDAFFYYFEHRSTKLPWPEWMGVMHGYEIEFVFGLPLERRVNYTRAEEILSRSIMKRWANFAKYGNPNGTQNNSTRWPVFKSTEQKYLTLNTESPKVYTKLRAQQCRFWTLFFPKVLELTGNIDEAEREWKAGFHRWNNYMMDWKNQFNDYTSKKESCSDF
Chain of Acetylcholinesterase (O42275 whole entry): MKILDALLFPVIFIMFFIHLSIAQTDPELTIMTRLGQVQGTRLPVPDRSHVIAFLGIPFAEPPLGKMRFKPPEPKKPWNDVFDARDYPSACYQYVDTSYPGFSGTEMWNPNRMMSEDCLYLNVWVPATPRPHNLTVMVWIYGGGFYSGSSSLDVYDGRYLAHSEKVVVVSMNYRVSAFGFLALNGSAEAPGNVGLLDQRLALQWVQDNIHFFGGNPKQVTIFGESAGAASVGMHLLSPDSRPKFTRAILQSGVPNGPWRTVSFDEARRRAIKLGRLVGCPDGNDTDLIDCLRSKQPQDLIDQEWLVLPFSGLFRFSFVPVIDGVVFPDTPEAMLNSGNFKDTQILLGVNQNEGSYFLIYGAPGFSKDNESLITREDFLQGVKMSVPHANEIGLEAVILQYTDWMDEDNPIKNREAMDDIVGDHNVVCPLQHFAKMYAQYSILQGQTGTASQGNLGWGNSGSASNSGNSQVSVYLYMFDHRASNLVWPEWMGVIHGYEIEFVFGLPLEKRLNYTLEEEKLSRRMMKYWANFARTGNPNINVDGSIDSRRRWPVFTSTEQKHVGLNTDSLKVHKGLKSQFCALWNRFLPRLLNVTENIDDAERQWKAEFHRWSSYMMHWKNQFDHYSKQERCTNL

Row | Structure (SMILES) | IC50 (Acetylcholinesterase) [nM] | IC50 (Cholinesterase) [nM] | IC50 [1] [nM] | inhibition [2] | inhibition [3]
1 | COc1ccc(CC(=O)OCC(=O)Nc2c3c(nc4ccccc24)CCCC3)cc1 | 25.3 | 319 | 71.3 |  | 
2 | COc1cc(C(=O)OCC(=O)Nc2c3c(nc4ccccc24)CCCC3)cc(OC)c1OC | 8.46 | 329 | 30.7 |  | 
3 | O=C(COC(=O)/C=C/c1ccc(Cl)cc1)Nc1c2c(nc3ccccc13)CCCC2 | 213 | 542 | 51.8 |  | 
4 | COc1cc(/C=C/C(=O)OCC(=O)Nc2c3c(nc4ccccc24)CCCC3)cc(OC)c1OC | 16.9 | 299 | 45.9 |  | 
5 | O=C(COC(=O)Cc1ccc(O)cc1)Nc1c2c(nc3ccccc13)CCCC2 | 74 | 239 | 45.3 |  | 
6 | COc1ccc(CC(=O)OCC(=O)Nc2c3c(nc4ccccc24)CCCC3)cc1OC | 65.1 | 554 | 22.5 |  | 
7 | COc1ccc(CC(=O)OCC(=O)Nc2c3c(nc4ccccc24)CCCC3)c(OC)c1OC | 5.63 | 364 | 51.8 | Active | Active
8 | O=C(COC(=O)c1ccc(O)c(O)c1)Nc1c2c(nc3ccccc13)CCCC2 | 133 | 344 | 17.4 |  | 
9 | COc1ccc(/C=C/C(=O)OCC(=O)Nc2c3c(nc4ccccc24)CCCC3)cc1OC | 16.2 | 159 | 49.1 |  | 
10 | O=C(COC(=O)Cc1ccc(Cl)cc1)Nc1c2c(nc3ccccc13)CCCC2 | 183 | 218 | 77.5 |  | 
11 | COc1cc(OC)cc(C(=O)OCC(=O)Nc2c3c(nc4ccccc24)CCCC3)c1 | 15.7 | 224 | 55.9 |  | 
12 | O=C(COC(=O)Cc1c[nH]c2ccccc12)Nc1c2c(nc3ccccc13)CCCC2 | 8.13 | 292 | 39 |  | 
13 | COc1ccc(C(=O)OCC(=O)Nc2c3c(nc4ccccc24)CCCC3)c(OC)c1OC | 15.5 | 255 | 65.5 |  | 
14 | COc1ccc(/C=C/C(=O)OCC(=O)Nc2c3c(nc4ccccc24)CCCC3)cc1O | 74.9 | 355 | 46.1 |  | 
15 | COc1cc(C(=O)OCC(=O)Nc2c3c(nc4ccccc24)CCCC3)ccc1O | 70.1 | 319 | 37.4 |  | 
